These results are taken from patent US20090209460A1, “COMPOSITIONS AND METHODS FOR TREATING OBESITY AND RELATED METABOLIC DISORDERS” (Amylin Pharmaceuticals, Inc., priority 2005, published 2009).

Read-outs that look alike come from different tables or passages of the source. Residues, ends and D or L forms follow the SMILES beside them.

The nature of series [1]: brush border membrane (BBM) stability assay. The series is classed as in vitro ADME, human. The following applies: brush border membrane extract (e.g. kidney). The procedure: Some exemplary NMX Peptides and FNX Peptides were tested for stability in a brush border membrane (BBM) assay as described herein. To determine the enzymatic stability of peptide hormones peptides are incubated with a preparation of human brush border membranes extract (e.g., kidney), and the stability of the peptide is determined by measuring concentration of the intact peptide at specific intervals. The brush border membrane extract contains dipeptidyl peptidase IV (DPP-IV), neutral endopeptidases, peptidyl-dipeptidase A, carboxypeptidases and aminopeptidases. These are the primary enzymes that degrade peptides in vivo and are found in the kidneys, liver, lungs and pancreas. Resistance against these human proteases would increase peptide half-life. In the BBM assay test peptide was subjected to digestion over a period of five (5) hours with human brush border membrane extracts, e.g. kidney, at 37° C. At desired timepoints digestion was stopped by addition of quench solution, typically 50% ACN, 1% FA. After centrifugation to remove membrane debris, supernatant was subjected to mass spectrometry using a selected ion scan for the intact molecule of interest. Values are expressed as a percent of stable. A value of at least 80 or greater is regarded as an extremely stable molecule. A value of at least 70 or greater is a molecule with significant stability.

The next series relates to NIH/Swiss mice. As to the kind of experiment: acute food intake assay, lean overnight-fasted NIH/Swiss mice, intraperitoneal injection. Format: in vivo, mouse. As to conditions: for FI (60′, 200): food intake, % change relative to control, 60 min; for Food Intake Inhibition: mouse assay, dose of 200 mg/kg, measured at 60 minutes. The protocol: The effect of NMX Peptides, FNX Peptides or NMX Receptor agonists on food intake when systemically administered was investigated using an acute food intake assay. This assay measured food consumption in lean subjects. Lean, group-housed, overnight-fasted NIH/Swiss mice. All in vivo tests were performed with peripheral injections of peptide. […] The dose-response data are presented herein. The protocol is described below. Female NIH/Swiss mice (8-24 weeks old) were group housed with a 12:12 hour light:dark cycle, with lights on at 0300. Water and a standard pelleted mouse chow diet are available ad libitum, except as noted. Animals are fasted starting at approximately 1530 hrs, 1 day prior to experiment. At time=0 min, all animals are given an intraperitoneal injection of vehicle or polypeptide in a volume of 200 uL/mouse and immediately given a pre-weighed amount (10-15 g) of the standard chow. Food is removed and weighed at 30, 60, and 120 minutes to determine the amount of food consumed. The effects of treatment on food intake are expressed as % change relative to control.

Setting [2] is: percent compound remaining after a 5 hour incubation, human brush border membrane assay, read-out: hBBM.

As to `CC(C)C[C@H](NC(=O)[C@H](CCCCN)NC(=O)[C@H](CCC(N)=O)NC(=O)[C@@H](NC(=O)[C@H](CCCCN)NC(=O)[C@H](CO)NC(=O)[C@H](Cc1ccc(O)cc1)NC(=O)[C@H](Cc1c[nH]cn1)NC(=O)[C@H](Cc1ccccc1)NC(=O)[C@H](CC(C)C)NC(=O)[C@@H](N)Cc1ccccc1)[C@@H](C)O)C(=O)NCC(=O)N[C@@H](CCCCN)C(=O)N[C@@H](CO)C(=O)N[C@@H](CC(N)=O)C(=O)N[C@H](C(=O)N[C@H](C(=O)N[C@@H](CCC(=O)O)C(=O)N[C@@H](CCC(=O)O)C(=O)N[C@@H](CC(C)C)C(=O)N[C@@H](CCC(N)=O)C(=O)N[C@@H](CO)C(=O)N1CCC[C@H]1C(=O)N[C@@H](Cc1ccccc1)C(=O)N[C@@H](C)C(=O)N[C@@H](CO)C(=O)N[C@@H](CCC(N)=O)C(=O)N[C@@H](CO)C(=O)N[C@@H](CCCNC(=N)N)C(=O)NCC(=O)N[C@@H](Cc1ccc(O)cc1)C(=O)N[C@@H](Cc1ccccc1)C(=O)N[C@H](C(=O)N[C@@H](Cc1ccccc1)C(=O)N[C@@H](CCCNC(=N)N)C(=O)N1CCC[C@H]1C(=O)N[C@@H](CCCNC(=N)N)C(=O)N[C@@H](CC(N)=O)C(N)=O)C(C)C)C(C)C)C(C)C` [[Val33]FN38] (H-FLFHYSKTQKLGKSNVVEELQSPFASQSRGYFVFRPRN-NH2; N-terminus and C-terminus assumed), in series [1] (setting [2]), the remaining at 5 h stood at 82%.
For `CC(C)C[C@H](NC(=O)[C@H](CCCCN)NC(=O)[C@H](CCC(N)=O)NC(=O)[C@@H](NC(=O)[C@H](CCCCN)NC(=O)[C@H](CO)NC(=O)[C@H](Cc1ccc(O)cc1)NC(=O)[C@H](Cc1c[nH]cn1)NC(=O)[C@H](Cc1ccccc1)NC(=O)[C@H](CC(C)C)NC(=O)[C@@H](N)Cc1ccccc1)[C@@H](C)O)C(=O)NCC(=O)N[C@@H](CCCCN)C(=O)N[C@@H](CO)C(=O)N[C@@H](CC(N)=O)C(=O)N[C@H](C(=O)N[C@H](C(=O)N[C@@H](CCC(=O)O)C(=O)N[C@@H](CCC(=O)O)C(=O)N[C@@H](CC(C)C)C(=O)N[C@@H](CCC(N)=O)C(=O)N[C@@H](CO)C(=O)N1CCC[C@H]1C(=O)N[C@@H](Cc1ccccc1)C(=O)N[C@@H](C)C(=O)N[C@@H](CO)C(=O)N[C@@H](CCC(N)=O)C(=O)N[C@@H](CO)C(=O)N[C@@H](CCCNC(=N)N)C(=O)NCC(N)=O)C(C)C)C(C)C` [Compound 165062] (H-FLFHYSKTQKLGKSNVVEELQSPFASQSRG-NH2; N-terminus assumed), the “FI (60′, 200)” value in the series on NIH/Swiss mice is 0%. Also, the remaining at 5 h in series [1] (percent of stable, human brush border membrane extracts, five hours, 37° C., read-out: BBM) was 40%.
Consider `CC(C)C[C@H](NC(=O)[C@H](CCCCN)NC(=O)[C@H](CCC(N)=O)NC(=O)[C@@H](NC(=O)[C@H](CCCCN)NC(=O)[C@H](CO)NC(=O)[C@@H](N)Cc1ccc(O)cc1)[C@@H](C)O)C(=O)NCC(=O)N[C@@H](CCCCN)C(=O)N[C@@H](CO)C(=O)N[C@@H](CC(N)=O)C(=O)N[C@H](C(=O)N[C@H](C(=O)N[C@@H](CCC(=O)O)C(=O)N[C@@H](CCC(=O)O)C(=O)N[C@@H](CC(C)C)C(=O)N[C@@H](CCC(N)=O)C(=O)N[C@@H](CO)C(=O)N1CCC[C@H]1C(=O)N[C@@H](Cc1ccccc1)C(=O)N[C@@H](C)C(=O)N[C@@H](CO)C(=O)N[C@@H](CCC(N)=O)C(=O)N[C@@H](CO)C(=O)N[C@@H](CCCNC(=N)N)C(=O)NCC(=O)N[C@@H](Cc1ccc(O)cc1)C(=O)N[C@@H](Cc1ccccc1)C(=O)N[C@@H](CC(C)C)C(=O)N[C@@H](Cc1ccccc1)C(=O)N[C@@H](CCCNC(=N)N)C(=O)N1CCC[C@H]1C(=O)N[C@@H](CCCNC(=N)N)C(=O)N[C@@H](CC(N)=O)C(N)=O)C(C)C)C(C)C` [Des-(Phe1,Leu2,Phe3,His4)FN38] (H-YSKTQKLGKSNVVEELQSPFASQSRGYFLFRPRN-NH2; N-terminus assumed), for which the “Food Intake Inhibition” value with NIH/Swiss mice is −58%. Besides, in series [1] (setting [2]), the remaining at 5 h came out at 41%.
Consider `CC(C)C[C@H](NC(=O)[C@H](CCCCN)NC(=O)[C@H](CCC(N)=O)NC(=O)[C@@H](NC(=O)[C@H](CCCCN)NC(=O)[C@H](CO)NC(=O)[C@H](Cc1ccc(O)cc1)NC(=O)[C@H](Cc1c[nH]cn1)NC(=O)[C@H](Cc1ccccc1)NC(=O)[C@H](CC(C)C)NC(=O)[C@@H](N)Cc1ccccc1)[C@@H](C)O)C(=O)NCC(=O)N[C@@H](CCCCN)C(=O)N[C@@H](CO)C(=O)N[C@@H](CC(N)=O)C(=O)N[C@@H](CCC(=O)O)C(=O)N[C@@H](CCC(=O)O)C(=O)N[C@@H](CC(C)C)C(=O)N[C@@H](CCC(N)=O)C(=O)N[C@@H](CO)C(=O)N1CCC[C@H]1C(=O)N[C@@H](CO)C(=O)N[C@@H](CCCNC(=N)N)C(=O)NCC(=O)N[C@@H](Cc1ccc(O)cc1)C(=O)N[C@@H](Cc1ccccc1)C(=O)N[C@@H](CC(C)C)C(=O)N[C@@H](Cc1ccccc1)C(=O)N[C@@H](CCCNC(=N)N)C(=O)N1CCC[C@H]1C(=O)N[C@@H](CCCNC(=N)N)C(=O)N[C@@H](CC(N)=O)C(N)=O` (H-FLFHYSKTQKLGKSNEELQSPSRGYFLFRPRN-NH2; N-terminus assumed), for which the “Food Intake Inhibition” value with NIH/Swiss mice is −79%. Moreover, the remaining at 5 h in series [1] (setting [2]) amounted to 77%.
On to `CC(C)C[C@H](NC(=O)[C@H](Cc1ccccc1)NC(=O)[C@H](Cc1ccc(O)cc1)NC(=O)CN)C(=O)N[C@@H](Cc1ccccc1)C(=O)N[C@@H](CCCNC(=N)N)C(=O)N1CCC[C@H]1C(=O)N[C@@H](CCCNC(=N)N)C(=O)N[C@@H](CC(N)=O)C(N)=O` [Compound 163357, reference compound] (H-GYFLFRPRN-NH2; N-terminus assumed), for which the “activity in food intake assays” value in the series on NIH/Swiss mice (doses up to 170 nmol/kg) was “inactive”. Further, the “FI (60′, 200)” value in the series on NIH/Swiss mice is given as 26%.
Regarding `CC(C)C[C@H](NC(=O)[C@H](CCCCN)NC(=O)[C@H](CCC(N)=O)NC(=O)[C@@H](NC(=O)[C@H](CCCCN)NC(=O)[C@H](CO)NC(=O)[C@H](Cc1ccc(O)cc1)NC(=O)[C@H](Cc1c[nH]cn1)NC(=O)[C@H](Cc1ccccc1)NC(=O)[C@H](CC(C)C)NC(=O)[C@@H](N)Cc1ccccc1)[C@@H](C)O)C(=O)NCC(=O)N[C@@H](CCCCN)C(=O)N[C@@H](CO)C(=O)N[C@@H](CC(N)=O)C(=O)N[C@H](C(=O)N[C@H](C(=O)N[C@@H](CCC(=O)O)C(=O)N[C@@H](CCC(=O)O)C(=O)N[C@@H](CC(C)C)C(=O)N[C@@H](CCC(N)=O)C(=O)N[C@@H](CO)C(=O)N1CCC[C@H]1C(=O)N[C@@H](CO)C(=O)N[C@@H](CCCNC(=N)N)C(=O)NCC(=O)N[C@@H](Cc1ccc(O)cc1)C(=O)N[C@@H](Cc1ccccc1)C(=O)N[C@@H](CC(C)C)C(=O)N[C@@H](Cc1ccccc1)C(=O)N[C@@H](CCCNC(=N)N)C(=O)N1CCC[C@H]1C(=O)N[C@@H](CCCNC(=N)N)C(=O)N[C@@H](CC(N)=O)C(N)=O)C(C)C)C(C)C` [Des-(Phe24,Ala25,Ser26,Gln27)-FN38] (H-FLFHYSKTQKLGKSNVVEELQSPSRGYFLFRPRN-NH2; N-terminus assumed), the “Food Intake Inhibition” value with NIH/Swiss mice is given as −83%. Moreover, in series [1] (setting [2]), the remaining at 5 h was 61%.
`CC(C)C[C@H](NC(=O)[C@H](CCCCN)NC(=O)[C@H](CCC(N)=O)NC(=O)[C@@H](NC(=O)[C@H](CCCCN)NC(=O)[C@H](CO)NC(=O)[C@H](Cc1ccc(O)cc1)NC(=O)[C@H](Cc1c[nH]cn1)NC(=O)[C@H](Cc1ccccc1)NC(=O)[C@H](CC(C)C)NC(=O)[C@@H](N)Cc1ccccc1)[C@@H](C)O)C(=O)NCC(=O)N[C@@H](CCCCN)C(=O)N[C@@H](CO)C(=O)N[C@@H](CC(N)=O)C(=O)N[C@H](C(=O)N[C@H](C(=O)N[C@@H](CCC(=O)O)C(=O)N[C@@H](CCC(=O)O)C(=O)N[C@@H](CC(C)C)C(=O)N[C@@H](CCC(N)=O)C(=O)N[C@@H](CO)C(=O)N1CCC[C@H]1C(=O)N[C@@H](Cc1ccccc1)C(=O)N[C@@H](C)C(=O)N[C@@H](CO)C(=O)N[C@@H](CCC(N)=O)C(=O)N[C@@H](CO)C(=O)N[C@@H](CCCNC(=N)N)C(=O)NCC(=O)N[C@@H](Cc1ccccc1)C(=O)N[C@@H](Cc1ccccc1)C(=O)N[C@@H](CC(C)C)C(=O)N[C@@H](Cc1ccccc1)C(=O)N[C@@H](CCCNC(=N)N)C(=O)N1CCC[C@H]1C(=O)N[C@@H](CCCNC(=N)N)C(=O)N[C@@H](CC(N)=O)C(N)=O)C(C)C)C(C)C` [(Phe31]FN38] (H-FLFHYSKTQKLGKSNVVEELQSPFASQSRGFFLFRPRN-NH2; N-terminus assumed): in the series on NIH/Swiss mice, the “Food Intake Inhibition” value was −64%. The remaining at 5 h in series [1] (setting [2]) is 81%.
With `CC(C)C[C@H](NC(=O)[C@H](Cc1ccccc1)NC(=O)[C@H](Cc1ccc(O)cc1)NC(=O)CNC(=O)[C@H](CO)NC(=O)[C@H](Cc1ccc(O)cc1)NC(=O)[C@H](Cc1c[nH]cn1)NC(=O)[C@H](Cc1ccccc1)NC(=O)[C@H](CC(C)C)NC(=O)[C@@H](N)Cc1ccccc1)C(=O)N[C@@H](Cc1ccccc1)C(=O)N[C@@H](CCCNC(=N)N)C(=O)N1CCC[C@H]1C(=O)N[C@@H](CCCNC(=N)N)C(=O)N[C@@H](CC(N)=O)C(N)=O` [Des-(Lys7-Gly30)FN38 or FN15] (H-FLFHYSGYFLFRPRN-NH2; N-terminus and C-terminus assumed), the remaining at 5 h in series [1] (setting [2]) was 49%.
